Data: ChEMBL document CHEMBL4842390, “Amino-Heterocycle Tetrahydroisoquinoline CXCR4 Antagonists with Improved ADME Profiles via Late-Stage Buchwald Couplings” (ACS Med Chem Lett, 2021)

Legend:
[1] = Metabolic stability in mouse liver microsomes assessed as parent compound remaining incubated for 10 mins in presence of NADPH; type: ADME, Microsome; conditions: read-out: Stabilty
[2] = target: Cytochrome P450 2D6 (Homo sapiens, UniProt P10635); assay: Inhibition of human recombinant CYP2D6 expressed in insect cells using AMMC as substrate preincubated for 30 mins followed by NADPH regenerating system addition and measured after 45 mins by fluorescence based assay; type: ADME
Cytochrome P450 2D6, sequence (P10635 whole entry): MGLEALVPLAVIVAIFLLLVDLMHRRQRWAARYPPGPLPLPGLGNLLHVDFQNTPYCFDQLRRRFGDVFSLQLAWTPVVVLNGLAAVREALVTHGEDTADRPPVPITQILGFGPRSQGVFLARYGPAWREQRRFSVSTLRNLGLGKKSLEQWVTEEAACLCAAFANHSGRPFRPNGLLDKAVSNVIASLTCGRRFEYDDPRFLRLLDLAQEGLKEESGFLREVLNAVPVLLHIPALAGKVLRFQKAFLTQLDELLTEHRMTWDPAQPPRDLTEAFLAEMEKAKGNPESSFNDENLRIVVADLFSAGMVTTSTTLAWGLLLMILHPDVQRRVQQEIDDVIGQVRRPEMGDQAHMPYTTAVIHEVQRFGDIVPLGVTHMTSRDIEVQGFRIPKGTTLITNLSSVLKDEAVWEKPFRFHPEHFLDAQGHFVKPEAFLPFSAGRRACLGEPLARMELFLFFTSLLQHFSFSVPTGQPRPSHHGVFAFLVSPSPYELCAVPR

[3] = Metabolic stability in rat liver microsomes assessed as parent compound remaining incubated for 10 mins in presence of NADPH; type: ADME, Microsome; conditions: read-out: Stabilty
[4] = target: Cytochrome P450 3A4 (Homo sapiens, UniProt P08684); assay: Inhibition of CYP3A4 (unknown origin); type: ADME
Cytochrome P450 3A4, sequence (P08684 whole entry): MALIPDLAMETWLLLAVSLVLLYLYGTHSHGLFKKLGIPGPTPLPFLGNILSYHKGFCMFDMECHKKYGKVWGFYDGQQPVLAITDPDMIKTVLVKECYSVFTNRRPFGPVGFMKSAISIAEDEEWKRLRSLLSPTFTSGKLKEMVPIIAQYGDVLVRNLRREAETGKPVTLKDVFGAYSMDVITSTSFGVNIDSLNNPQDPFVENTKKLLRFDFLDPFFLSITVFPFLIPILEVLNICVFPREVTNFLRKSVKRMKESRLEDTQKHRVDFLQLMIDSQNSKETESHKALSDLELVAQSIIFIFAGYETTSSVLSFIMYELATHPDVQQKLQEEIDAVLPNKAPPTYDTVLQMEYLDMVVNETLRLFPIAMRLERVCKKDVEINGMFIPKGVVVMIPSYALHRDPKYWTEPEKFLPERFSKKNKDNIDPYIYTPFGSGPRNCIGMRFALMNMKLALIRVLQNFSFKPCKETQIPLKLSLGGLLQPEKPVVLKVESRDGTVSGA

[5] = Metabolic stability in human liver microsomes assessed as parent compound remaining incubated for 10 mins in presence of NADPH; type: ADME, Microsome; conditions: read-out: Stabilty
[6] = cells; conditions: Homo sapiens, CCRF-CEM
Description: Antagonist activity at muscarinic acetylcholine receptor in human CCRF-CEM cells assessed as inhibition of acetylcholine-induced calcium release preincubated for 25 mins followed by acetylcholine addition and monitered for 90 sec

[7] = target: C-X-C chemokine receptor type 4 (Homo sapiens, UniProt P61073); assay: Antagonist activity at CXCR4 receptor in human CCRF-CEM cells assessed as inhibition of SDF-1alpha-induced calcium release preincubated for 25 mins followed by SDF-1alpha addition and monitered for 90 sec; type: functional, cell-based
C-X-C chemokine receptor type 4, sequence (P61073 whole entry): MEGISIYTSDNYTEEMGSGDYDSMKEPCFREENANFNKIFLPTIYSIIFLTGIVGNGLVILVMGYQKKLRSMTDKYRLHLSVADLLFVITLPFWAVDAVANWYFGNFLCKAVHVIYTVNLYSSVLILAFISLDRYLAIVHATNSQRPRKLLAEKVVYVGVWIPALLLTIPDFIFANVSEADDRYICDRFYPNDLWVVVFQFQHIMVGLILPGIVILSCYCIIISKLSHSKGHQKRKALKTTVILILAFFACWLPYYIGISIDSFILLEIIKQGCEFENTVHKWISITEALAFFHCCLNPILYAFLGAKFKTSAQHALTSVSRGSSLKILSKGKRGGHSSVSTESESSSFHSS

[8] = Permeability of the compound at pH 7.4 incubated for 4 hrs by PAMPA; type: ADME; conditions: read-out: permeability
[9] = Half life in CD-1 mouse at 30 mg/kg, po or at 3 mg/kg, iv by UPLC-MS/MS analysis; conditions: in vivo
[10] = Oral bioavailability in CD-1 mouse at 30 mg/kg measured upto 8 hrs by UPLC-MS/MS analysis; type: ADME, organism-based; conditions: in vivo
[11] = AUC (0 to 8 hrs) in CD-1 mouse at 30 mg/kg, po or at 3 mg/kg, iv measured up to 8 hrs by UPLC-MS/MS analysis; type: ADME, organism-based; design: dose 30 mg/kg, time <=8; conditions: in vivo
[12] = Volume of distribution in CD-1 mouse at 30 mg/kg, po or at 3 mg/kg, iv by UPLC-MS/MS analysis; type: ADME, organism-based; conditions: in vivo
[13] = target: Cytochrome P450 2C9 (Homo sapiens, UniProt P11712); assay: Inhibition of CYP2C9 (unknown origin); type: ADME
Cytochrome P450 2C9, sequence (P11712 whole entry): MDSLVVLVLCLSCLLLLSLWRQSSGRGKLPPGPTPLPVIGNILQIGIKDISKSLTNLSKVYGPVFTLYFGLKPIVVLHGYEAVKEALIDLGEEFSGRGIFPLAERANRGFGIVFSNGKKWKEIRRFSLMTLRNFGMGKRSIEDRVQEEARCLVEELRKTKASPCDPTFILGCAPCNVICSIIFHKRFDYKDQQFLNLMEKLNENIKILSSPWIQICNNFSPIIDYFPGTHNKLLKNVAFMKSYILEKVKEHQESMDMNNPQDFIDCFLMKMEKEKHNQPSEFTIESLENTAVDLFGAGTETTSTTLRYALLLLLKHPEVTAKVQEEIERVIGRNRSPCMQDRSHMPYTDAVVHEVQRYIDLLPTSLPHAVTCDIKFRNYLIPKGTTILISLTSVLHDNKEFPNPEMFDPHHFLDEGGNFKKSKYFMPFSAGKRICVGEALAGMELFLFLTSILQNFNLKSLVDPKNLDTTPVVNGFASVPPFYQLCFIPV

| Compound | remaining at 10 min [1] [%] | IC50 [2] [µM] | remaining at 10 min [3] [%] | IC50 [4] [µM] | remaining at 10 min [5] [%] | IC50 [6] [µM] | IC50 [7] [µM] | Papp at 4 h [8] [×10⁻⁶ cm/s] | half-life [9] [h] | bioavailability [10] [%] | AUC(0-t) [11] [ng·h/mL] | Vd [12] [L/kg] | IC50 [13] [µM] |
| --- | --- | --- | --- | --- | --- | --- | --- | --- | --- | --- | --- | --- | --- |
| NCCCCN(Cc1nc2ccccc2[nH]1)[C@H]1CCCc2cccnc21 [MAVORIXAFOR] |  |  |  |  |  |  |  |  | 3.1 | 2.4 | 101 | 32.2 |  |
| CN(C[C@H]1Cc2c(cccc2NC2CCNCC2)CN1)[C@H]1CCCc2cccnc21 | 10.9 | > 20 | 9.79 | > 20 | 75 | > 16.7 | 0.0181 |  |  |  |  |  |  |
| CN1CCC(N(C)c2cccc3c2C[C@H](CN(C)[C@H]2CCCc4cccnc42)NC3)CC1 |  | > 20 | 6.52 | > 20 | 88.8 | > 16.7 | 0.0134 | 1 |  |  |  |  |  |
| CN(C)C1CCN(c2cccc3c2C[C@H](CN(C)[C@H]2CCCc4cccnc42)NC3)CC1 | 70.2 | > 20 | 52.4 | > 20 | 78.4 | > 16.7 | 0.0359 | 4.4 |  |  |  |  | 6.67 |
| CN(C[C@@H]1Cc2c(cccc2NC2CCNCC2)CN1)[C@H]1CCCc2cccnc21 | 12.4 | > 20 | 26.2 | > 20 | 79.9 | > 16.7 | 1.67 |  |  |  |  |  |  |
| CN1C[C@@H]2CN(c3cccc4c3C[C@H](CN(C)[C@H]3CCCc5cccnc53)NC4)C[C@@H]2C1 | 32.9 | > 20 | 35.3 | > 20 | 100 | > 33.3 | 0.00956 | 0.5 |  |  |  |  |  |

Next, values leading:

| remaining at 10 min [1] [%] | IC50 [2] [µM] | remaining at 10 min [3] [%] | IC50 [4] [µM] | remaining at 10 min [5] [%] | IC50 [6] [µM] | IC50 [7] [µM] | Papp at 4 h [8] [×10⁻⁶ cm/s] | half-life [9] [h] | bioavailability [10] [%] | AUC(0-t) [11] [ng·h/mL] | Vd [12] [L/kg] | IC50 [13] [µM] | Compound |
| --- | --- | --- | --- | --- | --- | --- | --- | --- | --- | --- | --- | --- | --- |
| 100 | > 20 | 75 | > 20 | 100 | 0.826 |  |  |  |  |  |  |  | CN(C[C@H]1Cc2c(cccc2N[C@H]2CC[C@H](N)CC2)CN1)[C@H]1CCCc2cccnc21 |
| 18.5 | 15.4 | 4.55 | > 20 | 67.5 | 12.3 | 0.0109 | 1.6 |  |  |  |  |  | CN(C)C1CCN(c2cccc3c2C[C@H](CN(C)[C@H]2CCCc4cccnc42)NC3)C1 (single isomer, unassigned; 37) |
| 70.3 | 3.96 | 38.4 | > 20 | 80.8 | > 33.3 | 0.0334 |  |  |  |  |  |  | CN(C[C@H]1Cc2c(cccc2N2CCC(N)CC2)CN1)[C@H]1CCCc2cccnc21 |
| 24 | 18.6 | 1.78 | > 20 | 87.3 | 11.9 | 0.0114 | 0.9 |  |  |  |  |  | CN1CC[C@H]2CN(c3cccc4c3C[C@H](CN(C)[C@H]3CCCc5cccnc53)NC4)C[C@H]21 |
| 54.7 | 7.81 | 38.1 | > 20 | 86.7 | 6.39 | 0.0103 |  |  |  |  |  |  | CN(C[C@H]1Cc2c(cccc2N2C[C@H]3CNC[C@H]3C2)CN1)[C@H]1CCCc2cccnc21 |
| 28.2 | 3.67 | 3.88 | > 20 |  | > 5.56 | 0.0104 | 1.4 |  |  |  |  |  | CN(C)C1CCN(c2cccc3c2C[C@H](CN(C)[C@H]2CCCc4cccnc42)NC3)C1 (single isomer, unassigned; 36) |
|  | 17.3 | 11.2 | > 20 | 97.6 | 2.9 | 0.0187 | 1.9 |  |  |  |  |  | CN(C[C@H]1Cc2c(cccc2N2C[C@H]3CCN(C)[C@H]3C2)CN1)[C@H]1CCCc2cccnc21 |
